Assay [1] concerns the target IRAK1 (His-TEV-IRAK1 (194-712)) (Homo sapiens (Human), UniProt P51617). The assay is described as follows: IRAK1 enzymatic assay. Type of assay: biochemical. In a few lines: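 Recombinant His-TEV-IRAK1 (194-712), 15 ng/well, autophosphorylation with 1 μM ATP plus [33P]ATP, 3 h at 30° C in Hepes pH 7.0 buffer with MgCl2, DTT, EGTA, BSA and Triton; compounds from 20 µM to 1 nM. The reaction was stopped with EDTA, and radioactivity was counted in streptavidin FlashPlates.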

A further assay deals with IRAK4 (Homo sapiens (Human), UniProt Q9NWZ3). As to the kind of experiment: IRAK4 enzymatic assay. Type of assay: biochemical. In a few lines: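 Recombinant His-TEV-IRAK4 (20 ng/well) phosphorylating biotinylated STK1 peptide (300 nM) with 2 μM ATP plus [^33P]ATP, 3 h at 30° C in pH 7.0 Hepes buffer with Mg2+ and Mn2+. Compounds 20 µM to 1 nM; EDTA stop, radioactivity captured on streptavidin FlashPlates.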
IRAK4, sequence (Q9NWZ3 whole entry): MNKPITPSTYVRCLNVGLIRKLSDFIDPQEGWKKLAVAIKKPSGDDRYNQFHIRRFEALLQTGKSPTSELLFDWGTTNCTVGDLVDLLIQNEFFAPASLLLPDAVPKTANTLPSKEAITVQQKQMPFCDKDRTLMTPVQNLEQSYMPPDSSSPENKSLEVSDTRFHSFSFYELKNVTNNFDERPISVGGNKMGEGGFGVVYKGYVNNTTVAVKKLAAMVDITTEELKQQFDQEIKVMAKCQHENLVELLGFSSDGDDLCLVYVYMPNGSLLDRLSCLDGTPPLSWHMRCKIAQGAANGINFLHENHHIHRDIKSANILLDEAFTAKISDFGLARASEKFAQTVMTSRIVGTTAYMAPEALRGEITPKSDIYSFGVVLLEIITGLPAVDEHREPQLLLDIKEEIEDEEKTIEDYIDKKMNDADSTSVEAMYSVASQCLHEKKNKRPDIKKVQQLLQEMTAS

For assay [2], the system named is TLR7 induced IL-6 secretion in human mononuclear cells (PBMC's). The assay is described as follows: TLR7 induced IL-6 in human PBMC's. Type of assay: cell-based. The following applies: Homo sapiens, PBMC, read-out: TLR7 induced IL-6 secretion in hPBMC's (IC50). The method, then:
TLR7 Induced IL-6 in Human PBMC's
Human PBMC assay was used as one of the functional assay a to monitor the activity of IRAK1 and IRAK4 small molecule inhibitors on TLR7 induced IL-6 secretion in human mononuclear cells (PBMC's). Human PBMCs were prepared from buffy coats (whole blood enriched with leukocytes and platelets) obtained from healthy volunteers used either fresh or frozen are plated in assay media (RPMI+2% P/S/L-glu+10% HI-FBS) and pre-treated with compounds in DMSO/media (range of concentrations from 25 uM to 0.4 nM) or controls (0.25% DMSO) for 30 minutes at 37° C. in assay media. Following pre-treatment with IRAK1 and IRAK4 inhibitors, PBMC's were stimulated with TLR7 specific ligand (2 uM) overnight (16-18 hrs) at 37° C. After incubation supernatant was transferred to 384 well PE AlphaPlate-384 (6005350) and IL-6 is quantified using Perkin Elmer IL-6 Alpha LISA kit (AL223C). Plates were read on an Envision® plate reader with Alpha Technology®.

Structures are written as SMILES. Structures can show the parent of a compound that is named as a salt.

IRAK1 (His-TEV-IRAK1 (194-712)), sequence (P51617 194-712): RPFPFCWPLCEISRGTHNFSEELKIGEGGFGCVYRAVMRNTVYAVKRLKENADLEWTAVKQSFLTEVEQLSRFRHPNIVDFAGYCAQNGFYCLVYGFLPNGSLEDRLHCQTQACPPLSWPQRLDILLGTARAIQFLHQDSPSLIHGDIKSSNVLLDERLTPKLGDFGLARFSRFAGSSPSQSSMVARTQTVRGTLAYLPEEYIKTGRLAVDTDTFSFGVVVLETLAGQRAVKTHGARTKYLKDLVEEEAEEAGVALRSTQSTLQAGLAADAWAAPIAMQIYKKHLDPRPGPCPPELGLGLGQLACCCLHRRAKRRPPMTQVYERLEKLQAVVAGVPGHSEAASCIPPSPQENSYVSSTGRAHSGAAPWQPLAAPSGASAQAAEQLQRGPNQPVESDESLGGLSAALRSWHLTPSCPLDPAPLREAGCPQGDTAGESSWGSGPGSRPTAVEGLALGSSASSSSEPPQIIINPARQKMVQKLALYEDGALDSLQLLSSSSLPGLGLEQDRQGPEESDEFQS

As to `Cn1cc(-c2cccc(-c3ncc(-c4cnn(C)c4)c(NCC4(O)COC4)n3)c2)cn1` [Example 52], the IC50 is 0.1 to 1 µM in assay [1], below 0.1 µM on IRAK4 and 1 to 5 µM in assay [2].
The matching figures for `Cn1cc(-c2cccc(-c3ncc(-c4cnn(C)c4)c(NCC4(CO)CCC4)n3)c2)cn1` [Example 53]: 0.1 to 1 µM, below 0.1 µM and 1 to 5 µM.
In the same order, the values of `Cn1cc(-c2cccc(-c3ncc(-c4cnn(C)c4)c(NC[C@H](O)CO)n3)c2)cn1` [Example 54] are 0.1 to 1 µM, 0.1 to 1 µM and 1 to 5 µM.
Regarding `Cn1cc(-c2cccc(-c3ncc(-c4cnn(C)c4)c(NCCN4CCS(=O)(=O)CC4)n3)c2)cn1` [Example 55], the figures for the IC50 (in assay [1]; against IRAK4; in assay [2]) were 0.1 to 1 µM, below 0.1 µM and 1 to 5 µM, respectively.
The matching figures for `Cn1cc(-c2cccc(-c3ncc(-c4cnn(C)c4)c(NC[C@@H](O)CO)n3)c2)cn1` [Example 56]: above 5 µM, below 0.1 µM and 1 to 5 µM.
In the same order, the values of `CC(=O)NCCNc1nc(-c2cccc(-c3cnn(C)c3)c2)ncc1-c1cnn(C)c1` [Example 57] are 0.1 to 1 µM, 0.1 to 1 µM and above 5 µM.
The matching figures for `Cn1cc(-c2cccc(-c3ncc(-c4cnn(C)c4)c(N[C@H]4CCC(=O)NC4)n3)c2)cn1` [Example 60]: 1 to 5 µM, 0.1 to 1 µM and 1 to 5 µM.
`Cn1cc(-c2cccc(-c3ncc(-c4cnn(C)c4)c(N[C@H]4C[C@@H](N)C4)n3)c2)cn1` [Example 62]: the IC50 in assay [1] was 1 to 5 µM; against IRAK4 it was 0.1 to 1 µM; in assay [2], 1 to 5 µM.
As to `Cn1cc(-c2cccc(-c3ncc(-c4cnn(C)c4)c(NCC4COC4)n3)c2)cn1` [Example 63], the IC50 is 0.1 to 1 µM in assay [1], below 0.1 µM against IRAK4 and 1 to 5 µM in assay [2].
On to `Cn1cc(-c2cccc(-c3ncc(-c4cnn(C)c4)c(NC4CC5(CC(N)C5)C4)n3)c2)cn1` (stereo not drawn) [Example 65], for which the IC50 in assay [1] is 0.1 to 1 µM; against IRAK4 it was below 0.1 µM; in assay [2], 0.1 to 1 µM.
`Cn1cc(-c2cccc(-c3ncc(-c4cnn(C)c4)c(NC45CCC(N)(C4)C5)n3)c2)cn1` [Example 66]: the IC50 was below 0.1 µM in assay [1], below 0.1 µM against IRAK4 and 0.1 to 1 µM in assay [2].
On to `Cn1cc(-c2cccc(-c3ncc(-c4cnn(C)c4)c(NCC4CCNC(=O)C4)n3)c2)cn1` (stereo not drawn) [Example 76], for which the values for the IC50 (in assay [1]; against IRAK4; in assay [2]) were 1 to 5 µM, 0.1 to 1 µM and above 5 µM, respectively.
The matching figures for `Cn1cc(-c2cccc(-c3ncc(-c4cnn(C)c4)c(NCC4[C@H]5CNC[C@@H]45)n3)c2)cn1` (stereo partly drawn) [Example 77]: above 5 µM, 0.1 to 1 µM and 1 to 5 µM.
In the same order, the values of `Cn1cc(-c2cccc(-c3ncc(-c4ccn(C)n4)c(NCC4CC(F)(F)C4)n3)c2)cn1` [Example 81] are 1 to 5 µM, 0.1 to 1 µM and above 5 µM.
In the same order, the values of `Cn1cc(-c2cccc(-c3ncc(-c4ccn(C)n4)c(NC[C@@H](O)CO)n3)c2)cn1` [Example 83] are 1 to 5 µM, 0.1 to 1 µM and 0.1 to 1 µM.
For the molecule `Cn1cc(-c2cccc(-c3ncc(-c4ccn(C)n4)c(NCCN4CCS(=O)(=O)CC4)n3)c2)cn1` [Example 84], the results for the IC50 (in assay [1]; against IRAK4; in assay [2]) were 1 to 5 µM, 0.1 to 1 µM and above 5 µM, respectively.
In the same order, the values of `Cn1cc(-c2cccc(-c3ncc(-c4cnn(C)c4)c(NCCC4CCNC4)n3)c2)cn1` (stereo not drawn) [Example 85] are above 5 µM, 0.1 to 1 µM and 1 to 5 µM.
Take `Cn1cc(-c2cccc(-c3ncc(-c4cnn([C@H]5CC[C@]6(CCC(=O)N6C)CC5)c4)c(NCC4CCNCC4)n3)c2)cn1` [Example 86, 1-Methyl-8-(4-{2-[3-(1-methyl-1H-pyrazol-4-yl)-phenyl]-4-[(piperidin-4-ylmethyl)-amino]-pyrimidin-5-yl}-pyrazol-1-yl)-1-aza-spiro[4.5]decan-2-one Hydrochloride]: the IC50 in assay [1] was 1 to 5 µM; on IRAK4 it was below 0.1 µM; in assay [2], above 5 µM.
Consider `CN1CCC(CNc2nc(-c3cccc(-c4cnn(C)c4)c3)ncc2-c2cnn([C@H]3CC[C@]4(CCC(=O)N4C)CC3)c2)CC1` [Example 87, 1-Methyl-8-(4-{4-[(1-methyl-piperidin-4-ylmethyl)-amino]-2-[3-(1-methyl-1H-pyrazol-4-yl)-phenyl]-pyrimidin-5-yl}-pyrazol-1-yl)-1-aza-spiro[4.5]decan-2-one], for which the IC50 in assay [1] was 1 to 5 µM; at IRAK4, below 0.1 µM; in assay [2], 1 to 5 µM.
Take `Cn1cc(-c2cccc(-c3ncc(-c4ccn(C)n4)c(NC4(CO)COC4)n3)c2)cn1` [Example 93]: the half-inhibitory concentration (IC50) in assay [1] was 0.1 to 1 µM; against IRAK4 it was below 0.1 µM; in assay [2], 0.1 to 1 µM.
Take `Cn1cc(-c2cccc(-c3ncc(-c4ccn(C)n4)c(NCCCCO)n3)c2)cn1` [Example 97]: the 50% inhibitory concentration (IC50) is 0.1 to 1 µM in assay [1], below 0.1 µM against IRAK4 and 1 to 5 µM in assay [2].
The matching figures for `Cn1cc(-c2cccc(-c3ncc(-c4ccn(C)n4)c(NC4CC(CN)(CCl)C4)n3)c2)cn1` (stereo not drawn) [Example 99]: 0.1 to 1 µM, below 0.1 µM and 0.1 to 1 µM.
In the case of `Cn1cc(-c2cccc(-c3ncc(-c4cnn(C)c4)c(NCCCCO)n3)c2)cn1` [Example 101], the IC50 in assay [1] is 1 to 5 µM; on IRAK4, below 0.1 µM; in assay [2] it was 0.1 to 1 µM.
For `Cn1cc(-c2cccc(-c3ncc(-c4cnn(C)c4)c(NCC4(O)CCNCC4(C)C)n3)c2)cn1` (stereo not drawn) [Example 112], the IC50 in assay [1] is 1 to 5 µM; at IRAK4, 0.1 to 1 µM; in assay [2], 1 to 5 µM.
As to `Cn1cc(-c2cccc(-c3ncc(-c4ccn(C)n4)c(NCC4CNCCO4)n3)c2)cn1` (stereo not drawn) [Example 115], the IC50 in assay [1] is above 5 µM; against IRAK4, 0.1 to 1 µM; in assay [2], 0.1 to 1 µM.
In the case of `Cn1cc(-c2cccc(-c3ncc(-c4cnn(C)c4)c(OCC4CCCO4)n3)c2)cn1` (stereo not drawn) [Example 118], the values for the half-maximal inhibitory concentration (IC50) (in assay [1]; against IRAK4; in assay [2]) were 1 to 5 µM, below 0.1 µM and 1 to 5 µM, respectively.
Regarding `Cn1cc(-c2cccc(-c3ncc(-c4ccn(C)n4)c(NC4CCOC4)n3)c2)cn1` (stereo not drawn) [Example 119], the results for the IC50 (in assay [1]; at IRAK4; in assay [2]) were 1 to 5 µM, 0.1 to 1 µM and above 5 µM, respectively.
In the same order, the values of `Cn1cc(-c2cccc(-c3ncc(-c4cnn(C)c4)c(NCC4CCCC(O)C4)n3)c2)cn1` (stereo not drawn) [Example 123] are 0.1 to 1 µM, below 0.1 µM and 0.1 to 1 µM.
In the same order, the values of `Cn1cc(-c2cccc(-c3ncc(-c4ccn(C)n4)c(NC4CCCCNC4)n3)c2)cn1` (stereo not drawn) [Example 125] are above 5 µM, 0.1 to 1 µM and 0.1 to 1 µM.
The matching figures for `Cc1nnc(-c2cnc(-c3cccc(-c4cnn(C)c4)c3)nc2NCCN2CCS(=O)(=O)CC2)s1` [Example 127]: above 5 µM, below 0.1 µM and 0.1 to 1 µM.
Consider `Cc1nnc(-c2cnc(-c3cccc(-c4cnn(C)c4)c3)nc2NC2CCC(N)CC2)s1` (stereo not drawn) [Example 128], for which the figures for the IC50 (in assay [1]; against IRAK4; in assay [2]) were 0.1 to 1 µM, below 0.1 µM and 0.1 to 1 µM, respectively.
Consider `Cc1nnc(-c2cnc(-c3cccc(-c4cnn(C)c4)c3)nc2N[C@H]2CC[C@@H](NS(C)(=O)=O)CC2)s1` [Example 129], for which the IC50 in assay [1] was 0.1 to 1 µM; on IRAK4 it was below 0.1 µM; in assay [2] it was 0.1 to 1 µM.
Regarding `Cn1cc(-c2cccc(-c3ncc(-c4cnn(C)c4)c(NCCC(C)(C)O)n3)c2)cn1` [Example 135], the IC50 in assay [1] is 0.1 to 1 µM; against IRAK4, below 0.1 µM; in assay [2] it was 0.1 to 1 µM.
Turning to `Cn1cc(-c2cccc(-c3ncc(-c4cnn(C)c4)c(NCC4CCC(F)(F)CC4)n3)c2)cn1` [Example 136], the IC50 in assay [1] was 0.1 to 1 µM; against IRAK4, below 0.1 µM; in assay [2], 1 to 5 µM.
The matching figures for `Cn1cc(-c2cccc(-c3ncc(-c4cnn(C)c4)c(NC4CCOCC4)n3)c2)cn1` [Example 137]: 0.1 to 1 µM, below 0.1 µM and 0.1 to 1 µM.
In the same order, the values of `Cn1cc(-c2cccc(-c3ncc(-c4ccn(C)n4)c(NC4CCOCC4)n3)c2)cn1` [Example 138] are 1 to 5 µM, below 0.1 µM and 1 to 5 µM.
Regarding `CN(CC1CC(F)(F)C1)c1nc(-c2cccc(-c3cnn(C)c3)c2)ncc1-c1cnn(C)c1` [Example 141], the IC50 fell in the range of 1 to 5 µM in assay [1], 0.1 to 1 µM against IRAK4 and 1 to 5 µM in assay [2].

The values are drawn from patent US9790221B2, “Heteroaryl compounds as IRAK inhibitors and uses thereof” (Merck Patent GmbH, priority 2014, dated 2017).
